System: microorganism having nitrile hydratase activity
Experiment: Growth inhibition caused by cobalt ions in cultivating a microorganism
Format: cell-based
Conditions: sugar present in culture solution as carbon source
From the text: The present inventors have conducted intensive studies on culture conditions to industrially obtain microbial cells having nitrile hydratase activity within a short period and at a high yield. […] Thus, the present invention has been accomplished.
As a result, it is possible to obtain microbial cells having nitrile hydratase enzyme activity within a short period and at a high yield

SMILES	growth inhibition caused by cobalt ions
O=C(CO)[C@@H](O)[C@H](O)[C@H](O)CO [fructose]	can reduce growth inhibition caused by cobalt ions
OC[C@@H](O)[C@@H](O)[C@H](O)[C@H](O)CO [mannitol]	can reduce growth inhibition caused by cobalt ions
